Assay results taken from patent US20080207632A1, “PROTEIN KINASE INHIBITORS” (SUPERGEN, INC., priority 2006, published 2008).

Assays:
Assay type in all cases: cell-based
Panc-1 (pancreas) = test: in vitro cytotoxicity assay (Cell-Titer-Glo), Panc-1; conditions: Homo sapiens, PANC-1, 96 h; Table 9; 4 days; read-out: IC50 Panc-1
Procedure: (§1) To evaluate cell killing of cancer cell lines, an in vitro cytotoxicity assay was performed. The tumor cell lines used were purchased from the American Type Culture Collection, and are identified as follows: Panc-1 (pancreas), MiaPaCa-2 (pancreas), MCF-7 (breast), HT-29 (colon), U2-OS (osteosarcoma), OVCAR-3 (ovary), HepG2 (hepatocellular carcinoma) and TT (medullary thyroid). The assay utilized the Cell-Titer-Glo Non-Radioactive Cell Proliferation Assay (Promega Corp., Madison, Wis.). First the cells were cultured in RPMI 1640 medium (Cat# 21870-076, Invitrogen Corporation) supplemented with 300 mg/L L-glutamine, 100 units/ml penicillin, 100 μg/ml streptomycin and 10% fetal bovine serum. All the cell lines were incubated in a humidified incubator at 37° C. with 5% CO2 atmosphere.
(§2) Cells were plated at a density of 2000 to 10000 cells per well, depending on their growth rate, in 0.09 mL medium on day 0 in 96-well Microlite TCT microtiter plates (7418, Thermo Labsystems, Franklin, Mass.). On day 1, 10 μL of serial dilutions of the individual compounds were added to the plates in replicates of 3. After incubation for 4 days at 37° C. in a humidified incubator, the cells were lysed in the Cell-Titer-Glo reagent, which also contains luciferase enzyme. The luciferase reaction utilizes ATP released from lysed cells to produce light, the intensity of which is linearly related to the amount of ATP. Thus, the amount of light produced is a reflection of the number of cells remaining in the well after drug treatment. This luminescence was measured using a Luminoskan luminometer (Thermo Electron Corp., Vantaa, Finland) Data were expressed as the percentage of survival of control cells calculated from the luminescence corrected for background. The surviving percent of cells was determined by dividing the mean luminescence values of the treated wells by the mean luminescence values of the control and multiplying by 100.
as §1, with “Briefly,” for “To evaluate cell killing of cancer cell lines, an in vitro cytotoxicity assay was performed. The”, “thyroid), PC-3 (prostate) and A549 (lung).” for “thyroid).”
as §1, with “carcinoma), PC-3 (prostate),” for “carcinoma)”, “A549 (lung).” for “TT (medullary thyroid).”
(§3) Cells were plated at a density of 2000 to 10000 cells per well, depending on their growth rate, in 0.09 mL medium on day 0 in 96-well Microlite TCT microtiter plates (#7418, Thermo Labsystems, Franklin, Mass.). On day 1, 10 μL of serial dilutions of the individual compounds were added to the plates in replicates of 3. After incubation for 4 days at 37° C. in a humidified incubator, the cells were lysed in the Cell-Titer-Glo reagent, which also contains luciferase enzyme. […]

MiaPaCa-2 (pancreas) = test: in vitro cytotoxicity assay (Cell-Titer-Glo), MiaPaCa-2; conditions: Homo sapiens, MIA PaCa-2, 96 h; Table 9; 4 days; read-out: IC50 MiaPaCa-2
Procedure: as §1, §2
as §1, with “Briefly,” for “To evaluate cell killing of cancer cell lines, an in vitro cytotoxicity assay was performed. The”, “thyroid), PC-3 (prostate) and A549 (lung).” for “thyroid).”
as §1, with “carcinoma), PC-3 (prostate),” for “carcinoma)”, “A549 (lung).” for “TT (medullary thyroid).”
as §3

MCF-7 (breast) = test: in vitro cytotoxicity assay (Cell-Titer-Glo), MCF-7; conditions: Homo sapiens, MCF7, 96 h; Table 9; 4 days; read-out: IC50 MCF-7
Procedure: as §1, §2
as §1, with “Briefly,” for “To evaluate cell killing of cancer cell lines, an in vitro cytotoxicity assay was performed. The”, “thyroid), PC-3 (prostate) and A549 (lung).” for “thyroid).”
as §1, with “carcinoma), PC-3 (prostate),” for “carcinoma)”, “A549 (lung).” for “TT (medullary thyroid).”
as §3

HT-29 (colon) = test: in vitro cytotoxicity assay (Cell-Titer-Glo), HT-29; conditions: Homo sapiens, HT-29, 96 h; Table 9; 4 days; read-out: IC50 HT-29
Procedure: as §1, §2
as §1, with “Briefly,” for “To evaluate cell killing of cancer cell lines, an in vitro cytotoxicity assay was performed. The”, “thyroid), PC-3 (prostate) and A549 (lung).” for “thyroid).”
as §1, with “carcinoma), PC-3 (prostate),” for “carcinoma)”, “A549 (lung).” for “TT (medullary thyroid).”
as §3

U2-OS (osteosarcoma) = test: in vitro cytotoxicity assay (Cell-Titer-Glo), U2-OS; conditions: Homo sapiens, U2OS, 96 h; Table 9; 4 days; read-out: IC50 U2-OS
Procedure: as §1, §2
as §1, with “Briefly,” for “To evaluate cell killing of cancer cell lines, an in vitro cytotoxicity assay was performed. The”, “thyroid), PC-3 (prostate) and A549 (lung).” for “thyroid).”
as §1, with “carcinoma), PC-3 (prostate),” for “carcinoma)”, “A549 (lung).” for “TT (medullary thyroid).”
as §3

OVCAR-3 (ovary) = test: in vitro cytotoxicity assay (Cell-Titer-Glo), OVCAR-3; conditions: Homo sapiens, OVCAR-3, 96 h; Table 9; 4 days; read-out: IC50 OVCAR-3
Procedure: as §1, §2
as §1, with “Briefly,” for “To evaluate cell killing of cancer cell lines, an in vitro cytotoxicity assay was performed. The”, “thyroid), PC-3 (prostate) and A549 (lung).” for “thyroid).”
as §1, with “carcinoma), PC-3 (prostate),” for “carcinoma)”, “A549 (lung).” for “TT (medullary thyroid).”
as §3

[1] = system: HepG2 (hepatocellular carcinoma); test: in vitro cytotoxicity assay (Cell-Titer-Glo), HepG2; conditions: Homo sapiens, HepG2, 96 h; Table 9; 4 days; read-out: IC50 HepG2
Procedure: as §1, §2
as §1, with “Briefly,” for “To evaluate cell killing of cancer cell lines, an in vitro cytotoxicity assay was performed. The”, “thyroid), PC-3 (prostate) and A549 (lung).” for “thyroid).”
as §1, with “carcinoma), PC-3 (prostate),” for “carcinoma)”, “A549 (lung).” for “TT (medullary thyroid).”
as §3

PC-3 (prostate) = test: in vitro cytotoxicity assay (Cell-Titer-Glo), PC-3; conditions: 96 h; Table 9; 4 days; read-out: IC50 PC-3
Procedure: as §1, with “Briefly,” for “To evaluate cell killing of cancer cell lines, an in vitro cytotoxicity assay was performed. The”, “thyroid), PC-3 (prostate) and A549 (lung).” for “thyroid).”
as §2
as §1, with “carcinoma), PC-3 (prostate),” for “carcinoma)”, “A549 (lung).” for “TT (medullary thyroid).”
as §2, with “(#7418,” for “(7418,”, “100. […]” for “100.”

A549 (lung) = test: in vitro cytotoxicity assay (Cell-Titer-Glo), A549; conditions: Homo sapiens, A549, 96 h; Table 9; 4 days; read-out: IC50 A549
Procedure: as §1, with “Briefly,” for “To evaluate cell killing of cancer cell lines, an in vitro cytotoxicity assay was performed. The”, “thyroid), PC-3 (prostate) and A549 (lung).” for “thyroid).”
as §2
as §1, with “carcinoma), PC-3 (prostate),” for “carcinoma)”, “A549 (lung).” for “TT (medullary thyroid).”
as §2, with “(#7418,” for “(7418,”, “100. […]” for “100.”

Q: COc1cc2[nH]c3ncnc(N4CCN(C(=S)Nc5ccc(S(=O)(=O)Nc6ccc(F)cc6)cc5)CC4)c3c2cc1OC [Compound 2-3, 4-(6,7-dimethoxy-9H-pyrimido[4,5-b]indol-4-yl)-N-(4-(N-(4-fluorophenyl)sulfamoyl)phenyl)piperazine-1-carbothioamide] was tested. Which IC50 (Panc-1 (pancreas)) did it give?
A: 22.3 µM

Q: And the IC50 (MiaPaCa-2 (pancreas))?
A: 7.19 µM

Q: What about the IC50 (MCF-7 (breast)) of the same compound?
A: 8.43 µM

Q: And the IC50 (HT-29 (colon))?
A: 6.42 µM

Q: What about the IC50 (U2-OS (osteosarcoma)) of the same compound?
A: 8.18 µM

Q: What about the IC50 (OVCAR-3 (ovary)) of the same compound?
A: 9.14 µM

Q: And the IC50 [1]?
A: 9.02 µM

Q: What about the IC50 (PC-3 (prostate)) of the same compound?
A: 8.78 µM

Q: And the IC50 (A549 (lung))?
A: 23 µM

Q: For COc1ccc2c(c1)[nH]c1ncnc(N3CCN(C(=S)Nc4ccc(S(=O)(=O)Nc5ccc(F)cc5)cc4)CC3)c12 [Compound 2-5, 4-(7-methoxy-9H-pyrimido[4,5-b]indol-4-yl)-N-(4-(N-(4-fluorophenyl)sulfamoyl)phenyl)piperazine-1-carbothioamide], which IC50 (Panc-1 (pancreas)) is on record?
A: 10.7 µM

Q: And the IC50 (MiaPaCa-2 (pancreas))?
A: 6.89 µM

Q: What about the IC50 (MCF-7 (breast)) of the same compound?
A: 8.11 µM

Q: And the IC50 (HT-29 (colon))?
A: 6.93 µM

Q: What about the IC50 (U2-OS (osteosarcoma)) of the same compound?
A: 8.49 µM

Q: What about the IC50 (OVCAR-3 (ovary)) of the same compound?
A: 6.79 µM

Q: And the IC50 [1]?
A: 8 µM

Q: And the IC50 (PC-3 (prostate))?
A: 7.68 µM

Q: What about the IC50 (A549 (lung)) of the same compound?
A: 6.73 µM

Q: With Cc1ccc(NS(=O)(=O)c2ccc(NC(=S)N3CCN(c4ncnc5[nH]c6cc(Cl)c(N7CCOCC7)cc6c45)CC3)cc2)cc1 [Compound 2-9, 4-(7-chloro-6-morpholino-9H-pyrimido[4,5-b]indol-4-yl)-N-(4-(N-tolylsulfamoyl)phenyl)piperazine-1-carbothioamide] as the compound, how does the IC50 (Panc-1 (pancreas)) read?
A: 85.2 µM

Q: What about the IC50 (MiaPaCa-2 (pancreas)) of the same compound?
A: 26.9 µM

Q: And the IC50 (MCF-7 (breast))?
A: 8.21 µM

Q: What about the IC50 (HT-29 (colon)) of the same compound?
A: 8 µM

Q: And the IC50 (U2-OS (osteosarcoma))?
A: 8.56 µM

Q: What about the IC50 (OVCAR-3 (ovary)) of the same compound?
A: 7.61 µM

Q: And the IC50 [1]?
A: 25.6 µM

Q: And the IC50 (PC-3 (prostate))?
A: 8.25 µM

Q: And the IC50 (A549 (lung))?
A: 19.4 µM
